Data reported in PubChem BioAssay (NCI).
“And” between values parts separate entries of the source, which are not always exact repeats. Identical values can stand only once.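 Protocol summary: plate cells (96-well), add compound at 5 concentrations, incubate 48 h, interpolate endpoints linearly. GI50 is the concentration that inhibits growth by half. The concentration for full growth arrest is given as TGI.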

Columns and labels:
Assay in all cases: NCI-60 cell line screen, 48 h
CCRF-CEM leukemia = system: CCRF-CEM leukemia
RXF 393 renal = system: RXF 393 renal
HOP-62 NSCLC = system: HOP-62 NSCLC
OVCAR-5 ovarian = system: OVCAR-5 ovarian
UACC-62 melanoma = system: UACC-62 melanoma
A549 NSCLC = system: A549 NSCLC
OVCAR-4 ovarian = system: OVCAR-4 ovarian
U251 CNS = system: U251 CNS
HCC-2998 colon = system: HCC-2998 colon
HL-60(TB) leukemia = system: HL-60(TB) leukemia

Structure (SMILES)	GI50 (CCRF-CEM leukemia)	TGI (CCRF-CEM leukemia)	GI50 (RXF 393 renal)	TGI (RXF 393 renal)	GI50 (HOP-62 NSCLC)	TGI (HOP-62 NSCLC)	GI50 (OVCAR-5 ovarian)	TGI (OVCAR-5 ovarian)	GI50 (UACC-62 melanoma)	TGI (UACC-62 melanoma)	GI50 (A549 NSCLC)	TGI (A549 NSCLC)	GI50 (OVCAR-4 ovarian)	TGI (OVCAR-4 ovarian)	GI50 (U251 CNS)	TGI (U251 CNS)	GI50 (HCC-2998 colon)	TGI (HCC-2998 colon)	GI50 (HL-60(TB) leukemia)	TGI (HL-60(TB) leukemia)
C=CC(=O)Nc1ccc(Nc2nccc(-c3ccc(N4CCCC4)c(C#N)c3)n2)cc1	13.8 µM	> 25 µM	0.545 µM	1.71 µM	10.9 µM	> 25 µM	> 25 µM	> 25 µM	> 25 µM	> 25 µM	11 µM	> 25 µM	20.1 µM	> 25 µM	15.4 µM	> 25 µM	> 25 µM	> 25 µM	4.88 µM	> 25 µM
COc1c2c(c3c(c1C1OC(C)[C@@H](C)O1)CC(C)(C)O3)C(=O)c1ccccc1C2=O (stereo partly specified)	–	53.2 µM	–	> 100 µM	–	> 100 µM	–	> 100 µM	–	> 100 µM	–	> 100 µM	–	> 100 µM	–	> 100 µM	–	> 100 µM	–	31.6 µM
CC(C)[C@](O)(c1ccc2cc(OC(F)F)c(OC(F)F)cc2c1)c1cn[nH]n1	23.8 µM and 24.2 µM	59 µM and 85.1 µM	15 µM and 14.4 µM	29.1 µM and 28.3 µM	17.2 µM and 15.6 µM	36.9 µM and 31.5 µM	21.7 µM and 22.9 µM	65.1 µM and 64.9 µM	20.1 µM and 13 µM	39.6 µM and 29.8 µM	23.5 µM and 19.5 µM	59.7 µM and 47.6 µM	21.9 µM and 15 µM	> 100 µM and 54.4 µM	16.5 µM and 16.1 µM	33.5 µM and 32 µM	18.2 µM and 18.4 µM	36.3 µM and 34.5 µM	26.8 µM and 25 µM	68.5 µM and 75.7 µM
c1ccc(SC2(Sc3ccccc3)CCCC2)cc1	–	> 100 µM	–	> 100 µM	–	> 100 µM	–	–	–	> 100 µM	–	> 100 µM	–	> 100 µM	–	> 100 µM	–	–	–	> 100 µM
COc1cccc(C2CC(c3cc(OC)c(OC)c(OC)c3)=NN2)c1 (stereo unspecified)	2.91 µM	21.7 µM	8.75 µM	34 µM	8.99 µM	71.4 µM	18.4 µM	66.1 µM	20.6 µM	> 100 µM	21.7 µM	87.2 µM	23.5 µM	> 100 µM	10 µM	22.8 µM	4.78 µM	18.3 µM	4.08 µM	31.7 µM
Cc1ccc(C(=O)O/N=C2/CCCC/C2=C\c2ccccc2)cc1	–	> 100 µM	–	> 100 µM	–	> 100 µM	–	> 100 µM	–	> 100 µM	–	39.3 µM	–	> 100 µM	–	> 100 µM	–	> 100 µM	–	45.1 µM
CC(C)=CCN=C(N)N	–	> 100 µM	–	> 100 µM	–	–	–	–	–	> 100 µM	–	> 100 µM	–	> 100 µM	–	> 100 µM	–	> 100 µM	–	> 100 µM
CCCN(CCC)CCCNCc1cc(I)cc(C)c1O	1.28 µM	6.06 µM	9.91 µM	23.2 µM	13.4 µM	26.2 µM	18.5 µM	43.7 µM	5.54 µM	18.6 µM	19.4 µM	42.4 µM	17.9 µM	37.8 µM	15.9 µM	29.4 µM	20.9 µM	36.1 µM	13.8 µM	29.8 µM
